# From patent USRE38551E1, “Anticonvulsant enantiomeric amino acid derivatives” (priority 1996, dated 2004)
# Read-outs that look alike come from different tables or passages of the source. Marks after values point to notes of the source that are not given here.
# How the values were obtained:
# motor impairment = motor impairment (ataxia, gait, stance) observation, rats (po); format: in vivo
# From the text: Compounds were screened for anticonvulsant activity in both male albino Carthworth Farms No. 1 mice (ip route) and male albino Sprague Dawley rats [oral (po) route]. Activity was established using the electrical (maximal electroshock or MES) test. In the MES test, a drop of electrolyte solution with anesthetic (0.5% butacaine hemisulfate in 0.9% sodium chloride) was used in the eyes of the animals prior to positioning the corneal electrodes and delivery of current. A 60 cycle alternating current was administered for 0.2 sec. in both species, 50 mA in mice and 150 mA in rats. Protection endpoints were defined as the abolition of the hind limb tonic extensor component of the induced seizure. In mice, effects of compounds on forced spontaneous motor activity were determined using the rotorod test. […] Normally under these conditions, mice maintain their balance almost indefinitely. In rats, motor impairment is assessed by observing for overt evidence of ataxia, abnormal gait and stance, and/or loss of placing response and muscle tone. In the mouse identification screening study all compounds were given at three dose levels (30, 100, 300 mg/kg) and two time periods (0.5 hours, 4 hours). Typically, in the MES seizures test one animal was tested at 30 mg/kg and 300 mg/kg, and three animals at 100 mg/kg. In the rotored toxicity test four animals were tested at 30 mg/kg, and 300 mg/kg, and eight animals at 100 mg/kg.
# The quantitative determination of the median effective (ED50) and toxic doses (TD50) was conducted at previously calculated times of peak effect. Groups of at least eight animals were tested using different doses of test compound until at least two points wee determined between 100 and 0% protection and minimal motor impairment. The dose of candidate substance required to produce the defined end-point in 50% of the animals in each test and the 95% confidence interval was calculated.
# [1] = test system: Crl:CD BR Charles River rats
# Procedure: II. Five groups of Crl:CD® BR Charles River rats were each exposed to BAMP or a control substance (0.5% methylcellulose [400 Cps] aqueous solution in distilled water) according to the following dosage schedule:
# Group 1—vehicle control (10 males, 10 females), 0 mg/kg/day
# Group 2—low (10 males, 10 females), 10 mg/kg/day
# Group 3—mid low (10 males, 10 females), 30 mg/kg/day
# Group 4—mid high (10 males, 10 females), 100 mg/kg/day
# Group 5—high (10 males, 10 females), 300 mg/kg/day
# Exposure was by oral gavage, once daily, for a period of at least 30 consecutive days, after which all animals were sacrificed for pathologic evaluation.
# All animals were weighed once prior to initiation of dosing and weekly thereafter. Food-fasted (overnight) blood samples for clinical chemistry and hematology were collected at termination. Blood samples were collected from the orbital venous plexus using carbon dioxide (mixed with oxygen) as an anesthetic.
# All animals were sacrificed, at the appropriate time, by exsanguination, under barbiturate anesthesia, and all were subjected to a necropsy examination.
# Clinical observations were reviewed at necropsy, and all grossly observed abnormalities were entered directly into the computerized data collection system. Adrenals, brain with brainstem, heart, kidneys, liver, ovaries, pituitary, testes with epididymides, and thyroid with parathyroids were weighted from each animal. The pituitary and thyroid with parathyroids were weighed after fixation and all of the other organs were weighed at the time of necropsy.
# As required by the protocol, histologic evaluations were conducted on liver only from all animals of Groups 1 (control) and 5 (high). All histologic findings were entered directly into the computerized data capture system. Lesions were graded as to relative severity or degree of involvement (1=minimal, 2=slight, 3=moderate, 4=moderately severe, 5=severe). In general, minimal represents the least consistently recognizable degree of any given histoniorphologic alteration, while severe would represent the most extreme degree reasonably possible, with the other three grades occupying a continuum between the two extremes. The grades are subjective, comparative evaluations, based on morphology alone and are not intended by themselves to imply any degree of functional impairment.
# [2] = female, group 2, 10 mg/kg/day, 30 days oral
# [3] = female, group 3, 30 mg/kg/day, 30 days oral
# [4] = female, group 4, 100 mg/kg/day × 30 days oral
# [5] = female, group 4, 100 mg/kg/day, 30 days oral
# [6] = female, group 5, 300 mg/kg/day × 30 days oral
# [7] = female, group 5, 300 mg/kg/day, 30 days oral
# [8] = male, group 2, 10 mg/kg/day, 30 days oral
# [9] = male, group 3, 30 mg/kg/day, 30 days oral
# [10] = male, group 4, 100 mg/kg/day × 30 days oral
# [11] = male, group 4, 100 mg/kg/day, 30 days oral
# [12] = male, group 5, 300 mg/kg/day × 30 days oral
# [13] = male, group 5, 300 mg/kg/day, 30 days oral
compound,measurement,setting,value
"COC[C@@H](NC(C)=O)C(=O)NCc1ccccc1 [Ex. 1, 2, (R)-N-Benzyl-2-Acetamide-3-methoxypropionamide]",RAT ED50 Neurotox,motor impairment; oral (Table 6),>500 mg/kg
same,"tox, TD50","motor impairment; rat, po, at time of peak effect",>500 [0.5] mg/kg
same,ESOPHAGUS (ES) NOT REMARKABLE (number of animals),[1]; [2],10
same,HEART (HT) ENLARGED (number of animals affected),[1]; [2],0
same,HEART (HT) NOT REMARKABLE (number of animals),[1]; [2],10
same,LIVER (LI) ENLARGED (number of animals affected),[1]; [2],0
same,LIVER (LI) NOT REMARKABLE (number of animals),[1]; [2],10
same,"LIVER ORGAN-TO-BODY WT, mean",[1]; [2],3.237%
same,LUNG (LU) NOT REMARKABLE (number of animals),[1]; [2],10
same,PARATHYROID (PT) NOT REMARKABLE (number of animals),[1]; [2],10
same,SPLEEN (SP) NOT REMARKABLE (number of animals),[1]; [2],10
same,"TERMINAL BODY WT, mean",[1]; [2],214.1 g
same,TRACHEA (TR) NOT REMARKABLE (number of animals),[1]; [2],10
same,ESOPHAGUS (ES) NOT REMARKABLE (number of animals),[1]; [3],10
same,HEART (HT) ENLARGED (number of animals affected),[1]; [3],0
same,HEART (HT) NOT REMARKABLE (number of animals),[1]; [3],10
same,LIVER (LI) ENLARGED (number of animals affected),[1]; [3],0
same,LIVER (LI) NOT REMARKABLE (number of animals),[1]; [3],10
same,"LIVER ORGAN-TO-BODY WT, mean",[1]; [3],3.244%
same,LUNG (LU) NOT REMARKABLE (number of animals),[1]; [3],10
same,PARATHYROID (PT) NOT REMARKABLE (number of animals),[1]; [3],10
same,SPLEEN (SP) NOT REMARKABLE (number of animals),[1]; [3],10
same,"TERMINAL BODY WT, mean",[1]; [3],207.0 g
same,TRACHEA (TR) NOT REMARKABLE (number of animals),[1]; [3],10
same,"LIVER ORGAN-TO-BODY WT, mean",[1]; [4],3.608%
same,"TERMINAL BODY WT, mean",[1]; [4],218.3 g
same,ESOPHAGUS (ES) NOT REMARKABLE (number of animals),[1]; [5],10
same,HEART (HT) ENLARGED (number of animals affected),[1]; [5],0
same,HEART (HT) NOT REMARKABLE (number of animals),[1]; [5],10
same,LIVER (LI) ENLARGED (number of animals affected),[1]; [5],0
same,LIVER (LI) NOT REMARKABLE (number of animals),[1]; [5],10
same,LUNG (LU) NOT REMARKABLE (number of animals),[1]; [5],10
same,PARATHYROID (PT) NOT REMARKABLE (number of animals),[1]; [5],10
same,SPLEEN (SP) NOT REMARKABLE (number of animals),[1]; [5],10
same,TRACHEA (TR) NOT REMARKABLE (number of animals),[1]; [5],10
same,"LIVER ORGAN-TO-BODY WT, mean",[1]; [6],3.832* %
same,"TERMINAL BODY WT, mean",[1]; [6],205.9 g
same,ESOPHAGUS (ES) NOT REMARKABLE (number of animals),[1]; [7],10
same,HEART (HT) ENLARGED (number of animals affected),[1]; [7],0
same,HEART (HT) NOT REMARKABLE (number of animals),[1]; [7],10
same,LIVER (LI) ENLARGED (number of animals affected),[1]; [7],0
same,LIVER (LI) NOT REMARKABLE (number of animals),[1]; [7],10
same,LUNG (LU) NOT REMARKABLE (number of animals),[1]; [7],10
same,PARATHYROID (PT) NOT REMARKABLE (number of animals),[1]; [7],10
same,SPLEEN (SP) NOT REMARKABLE (number of animals),[1]; [7],10
same,TRACHEA (TR) NOT REMARKABLE (number of animals),[1]; [7],10
same,ESOPHAGUS (ES) NOT REMARKABLE (number of animals),[1]; [8],10
same,HEART (HT) ENLARGED (number of animals affected),[1]; [8],0
same,HEART (HT) NOT REMARKABLE (number of animals),[1]; [8],10
same,LIVER (LI) ENLARGED (number of animals affected),[1]; [8],0
same,LIVER (LI) NOT REMARKABLE (number of animals),[1]; [8],10
same,"LIVER ORGAN-TO-BODY WT, mean",[1]; [8],3.248%
same,LUNG (LU) NOT REMARKABLE (number of animals),[1]; [8],10
same,PARATHYROID (PT) NOT REMARKABLE (number of animals),[1]; [8],10
same,SPLEEN (SP) NOT REMARKABLE (number of animals),[1]; [8],10
same,"TERMINAL BODY WT, mean",[1]; [8],342.0 g
same,TRACHEA (TR) NOT REMARKABLE (number of animals),[1]; [8],10
same,ESOPHAGUS (ES) NOT REMARKABLE (number of animals),[1]; [9],10
same,HEART (HT) ENLARGED (number of animals affected),[1]; [9],0
same,HEART (HT) NOT REMARKABLE (number of animals),[1]; [9],10
same,LIVER (LI) ENLARGED (number of animals affected),[1]; [9],0
same,LIVER (LI) NOT REMARKABLE (number of animals),[1]; [9],10
same,"LIVER ORGAN-TO-BODY WT, mean",[1]; [9],3.278%
same,LUNG (LU) NOT REMARKABLE (number of animals),[1]; [9],10
same,PARATHYROID (PT) NOT REMARKABLE (number of animals),[1]; [9],10
same,SPLEEN (SP) NOT REMARKABLE (number of animals),[1]; [9],10
same,"TERMINAL BODY WT, mean",[1]; [9],349.9 g
same,TRACHEA (TR) NOT REMARKABLE (number of animals),[1]; [9],10
same,"LIVER ORGAN-TO-BODY WT, mean",[1]; [10],3.351%
same,"TERMINAL BODY WT, mean",[1]; [10],351.5 g
same,ESOPHAGUS (ES) NOT REMARKABLE (number of animals),[1]; [11],10
same,HEART (HT) ENLARGED (number of animals affected),[1]; [11],0
same,HEART (HT) NOT REMARKABLE (number of animals),[1]; [11],10
same,LIVER (LI) ENLARGED (number of animals affected),[1]; [11],0
same,LIVER (LI) NOT REMARKABLE (number of animals),[1]; [11],10
same,LUNG (LU) NOT REMARKABLE (number of animals),[1]; [11],10
same,PARATHYROID (PT) NOT REMARKABLE (number of animals),[1]; [11],10
same,SPLEEN (SP) NOT REMARKABLE (number of animals),[1]; [11],10
same,TRACHEA (TR) NOT REMARKABLE (number of animals),[1]; [11],10
same,"LIVER ORGAN-TO-BODY WT, mean",[1]; [12],4.016* %
same,"TERMINAL BODY WT, mean",[1]; [12],358.8 g
same,ESOPHAGUS (ES) NOT REMARKABLE (number of animals),[1]; [13],10
same,HEART (HT) ENLARGED (number of animals affected),[1]; [13],0
same,HEART (HT) NOT REMARKABLE (number of animals),[1]; [13],10
same,LIVER (LI) ENLARGED (number of animals affected),[1]; [13],1
same,LIVER (LI) NOT REMARKABLE (number of animals),[1]; [13],9
same,LUNG (LU) NOT REMARKABLE (number of animals),[1]; [13],10
same,PARATHYROID (PT) NOT REMARKABLE (number of animals),[1]; [13],10
same,SPLEEN (SP) NOT REMARKABLE (number of animals),[1]; [13],10
same,TRACHEA (TR) NOT REMARKABLE (number of animals),[1]; [13],10
same,multiple of anti-convulsant dose causing no adverse histologic effects,"[1]; rats, 30 days chronic dosing",76.9
